From patent EP1840134B1 (NOVO NORDISK A/S, priority 1998, dated 2016)

Tested on: monoclonal antibody specific for the N-terminal region of GLP-1 (7-37)
Test: Cross reactivity of the RIA antibody used to determine plasma concentrations
Format: binding
Details: RIA at 4°C
Method: The entire procedure was carried out at 4°C.
The assay was carried out as follows: 100 µl plasma was mixed with 271 µl 96% ethanol, mixed using a vortex mixer and centrifuged at 2600*g for 30 min. The supernatant was decanted into Minisorp tubes and evaporated completely (Savant Speedvac AS290). The evaporation residue was reconstituted in the assay buffer consisting of 80 mM NaH2PO4/Na2HPO4, 0.1 % HSA (Orpha 20/21, Behring), 10 mM EDTA, 0.6 mM thiomersal (Sigma), pH 7.5. Samples were reconstituted in volumes suitable for their expected concentrations, and were allowed to reconstitute for 30 min. To 300 µl sample, 100 µl antibody solution in dilution buffer containing 40 mM NaH2PO4/Na2HPO4, 0.1 % HSA, 0.6 mM thiomersal, pH 7.5, was added. A non-specific sample was prepared by mixing 300 µl buffer with 100 µl dilution buffer. Individual standards were prepared from freeze dried stocks, dissolved in 300 µl assay buffer. All samples were pre-incubated in Minisorp tubes with antibody as described above for 72 h. […] Immediately after the centrifugation, the supernatant was decanted and counted in a γ-counter. The concentration in the samples was calculated from individual standard curves. Plasma concentrations were found, calculated as % of the maximum concentration for the individual compounds (n=2).

In the case of “GLP-1 (1-37) (HDEFERHAEGTFTSDVSSYLEGQAAKEFIAWLVKGRG; Glucagon-like peptide 1; UniProt P01275 92-128, looked up, fragment)”, the cross reactivities is reported as “less than 1%”.
